From publication PMC10145973, “Genomic Insights into Bacterial Resistance to Proline-Rich Antimicrobial Peptide Bac7” (Membranes, 2023)
≈ marks a conversion by molar mass, not a printed value. Where “and” joins values, the source holds several entries; their conditions need not be identical. Equal entries are not always repeated. Where a SMILES comes first, the peptide text is derived from it. Bridges are numbered along the chain shown (N, C = ends).

What was measured:
E. coli MDR 1057 B3 [1] = conditions: Table 2; broth microdilution in MHB (medium ±0.9% NaCl not given), 0.1% BSA, 24 h, 37 °C; median of at least three independent experiments in triplicate
E. coli MDR 1057 B2 [2] = conditions: Table 2; broth microdilution in MHB (medium ±0.9% NaCl not given), 0.1% BSA, 24 h, 37 °C; median of at least three independent experiments in triplicate
E. coli MDR 1057 WT [3] = conditions: Table 2; broth microdilution in MHB (medium ±0.9% NaCl not given), 10^6 CFU/mL suspension, agents diluted in 0.1% BSA, 24 h, 37 °C, visible turbidity; median of at least three independent experiments in triplicate
E. coli MDR 1057 P1 [4] = conditions: Table 2; broth microdilution in MHB (medium ±0.9% NaCl not given), 0.1% BSA, 24 h, 37 °C; median of at least three independent experiments in triplicate
E. coli MDR 1057 P1 [5] = test: microbe, parasite or virus in culture; conditions: Escherichia coli, MDR1057P1, 24 h, read-out: Minimum Inhibitory Concentration, P1
E. coli MDR 1057 WT [6] = test: microbe, parasite or virus in culture; conditions: Escherichia coli, MDR1057WT, 24 h, read-out: Minimum Inhibitory Concentration, WT
E. coli MDR 1057 B2 [7] = test: microbe, parasite or virus in culture; conditions: Escherichia coli, MDR1057B2, 24 h, read-out: Minimum Inhibitory Concentration, B2
E. coli MDR 1057 B3 [8] = test: microbe, parasite or virus in culture; conditions: Escherichia coli, MDR1057B3, 24 h, read-out: Minimum Inhibitory Concentration, B3
[9] = test system: resistant Salmonella enterica strain (pmrB mutations); conditions: cited from earlier work
[10] = test system: extensively drug-resistant Klebsiella pneumoniae isolate; set-up: method as in PMID 30445429; conditions: serially passaged in the presence of the agent; cited from earlier work

Compound | Minimum Inhibitory Concentration, B3 (E. coli MDR 1057 B3 [1]) [µM] | Minimum Inhibitory Concentration, B2 (E. coli MDR 1057 B2 [2]) [µM] | Minimum Inhibitory Concentration, WT (E. coli MDR 1057 WT [3]) [µM] | Minimum Inhibitory Concentration, P1 (E. coli MDR 1057 P1 [4]) [µM] | MIC (E. coli MDR 1057 P1 [5]) [µM] | MIC (E. coli MDR 1057 WT [6]) [µM] | MIC (E. coli MDR 1057 B2 [7]) [µM] | MIC (E. coli MDR 1057 B3 [8]) [µM] | MIC after a single pmrB mutation [9] | increase in MIC after serial passage [10] [fold]
CC(C)[C@@H]1NC(=O)[C@H](Cc2ccc(O)cc2)NC(=O)[C@H](Cc2c[nH]c3ccccc23)NC(=O)[C@@H](NC(=O)[C@H](Cc2ccccc2)NC(=O)CN)CSSC[C@@H](C(=O)N[C@@H](CC(N)=O)C(=O)O)NC(=O)[C@H](CCCNC(=N)N)NC(=O)[C@H](CCCNC(=N)N)NC(=O)[C@H](Cc2ccc(O)cc2)NC(=O)[C@@H]2CSSC[C@H](NC1=O)C(=O)N[C@@H](C)C(=O)N[C@@H](CCCNC(=N)N)C(=O)N[C@@H](CCCNC(=N)N)C(=O)N[C@@H](CC(N)=O)C(=O)NCC(=O)N[C@@H](C)C(=O)N[C@@H](CCCNC(=N)N)C(=O)N[C@@H](C(C)C)C(=O)N2 [AA139] (H-GFCWYVCARRNGARVCYRRCN-OH; disulfide 3-20, 7-16 (inferred)) | 1 | 0.25 | 0.25 | 0.5 |  |  |  |  |  | 
CC1(C)S[C@@H]2[C@H](NC(=O)[C@H](N)c3ccccc3)C(=O)N2[C@H]1C(=O)O [Ampicillin] |  |  |  |  | 256 (≈ 89.4 µg/mL) | 256 (≈ 89.4 µg/mL) | 256 (≈ 89.4 µg/mL) | 256 (≈ 89.4 µg/mL) |  | 
CO/N=C(\C(=O)N[C@@H]1C(=O)N2C(C(=O)O)=C(CSc3nc(=O)c(=O)[nH]n3C)CS[C@H]12)c1csc(N)n1 [Ceftriaxone] |  |  |  |  | 128 (≈ 71 µg/mL) | 128 (≈ 71 µg/mL) | 128 (≈ 71 µg/mL) | 128 (≈ 71 µg/mL) |  | 
CC[C@H](C)[C@H](NC(=O)[C@@H]1CCCN1C(=O)CNC(=O)[C@@H](NC(=O)[C@H](Cc1ccccc1)NC(=O)[C@@H]1CCCN1C(=O)CNC(=O)[C@@H](NC(=O)[C@H](CCCCN)NC(=O)[C@H](Cc1c[nH]cn1)NC(=O)[C@H](Cc1c[nH]c2ccccc12)NC(=O)[C@H](CC(C)C)NC(=O)[C@H](CCCNC(=N)N)NC(=O)[C@H](CCCCN)NC(=O)[C@H](CC(C)C)NC(=O)[C@H](CCCCN)NC(=O)[C@H](CCCCN)NC(=O)[C@H](CCCNC(=N)N)NC(=O)[C@H](Cc1ccccc1)NC(=O)[C@H](CCCNC(=N)N)NC(=O)[C@H](CCCCN)NC(=O)[C@H](Cc1ccccc1)NC(=O)[C@H](CCCNC(=N)N)NC(=O)CN)C(C)C)C(C)C)C(=O)N[C@@H](CC(C)C)C(=O)N[C@@H](Cc1c[nH]cn1)C(=O)N[C@@H](Cc1ccc(O)cc1)C(=O)O [ChMAP-28] (H-GRFKRFRKKLKRLWHKVGPFVGPILHY-OH) | 0.063 | 0.063 | 0.063 | 0.063 |  |  |  |  |  | 
O=C(N[C@H](CO)[C@H](O)c1ccc([N+](=O)[O-])cc1)C(Cl)Cl [Chloramphenicol] |  |  |  |  | 16 (≈ 5.17 µg/mL) | 8 (≈ 2.59 µg/mL) | 16 (≈ 5.17 µg/mL) | 8 (≈ 2.59 µg/mL) |  | 
O=C(O)c1cn(C2CC2)c2cc(N3CCNCC3)c(F)cc2c1=O [Ciprofloxacin] |  |  |  |  | 128 (≈ 42.4 µg/mL) |  | 128 (≈ 42.4 µg/mL) |  |  | 
CNC(C)C1CCC(N)C(OC2C(N)CC(N)C(OC3OCC(C)(O)C(NC)C3O)C2O)O1 (centres unmarked) [Gentamicin] |  |  |  |  | 4 (≈ 1.91 µg/mL) | 2 (≈ 0.955 µg/mL) | 2 (≈ 0.955 µg/mL) | 2 (≈ 0.955 µg/mL) |  | 
CC[C@H](C)[C@H](NC(=O)[C@H](CCCCN)NC(=O)[C@H](CCC(=O)O)NC(=O)[C@H](CCCCN)NC(=O)[C@H](CO)NC(=O)[C@H](CCCCN)NC(=O)[C@H](CCCNC(=N)N)NC(=O)[C@H](Cc1ccccc1)NC(=O)[C@H](Cc1ccccc1)NC(=O)[C@H](CC(=O)O)NC(=O)CNC(=O)[C@H](CC(C)C)NC(=O)[C@@H](N)CC(C)C)C(=O)NCC(=O)N[C@@H](CCCCN)C(=O)N[C@@H](CCC(=O)O)C(=O)N[C@@H](Cc1ccccc1)C(=O)N[C@@H](CCCCN)C(=O)N[C@@H](CCCNC(=N)N)C(=O)N[C@H](C(=O)N[C@H](C(=O)N[C@@H](CCC(N)=O)C(=O)N[C@@H](CCCNC(=N)N)C(=O)N[C@H](C(=O)N[C@@H](CCCCN)C(=O)N[C@@H](CC(=O)O)C(=O)N[C@@H](Cc1ccccc1)C(=O)N[C@@H](CC(C)C)C(=O)N[C@@H](CCCNC(=N)N)C(=O)N[C@@H](CC(N)=O)C(=O)N[C@@H](CC(C)C)C(=O)N[C@H](C(=O)N1CCC[C@H]1C(=O)N[C@@H](CCCNC(=N)N)C(=O)N[C@H](C(=O)N[C@@H](CCC(=O)O)C(=O)N[C@@H](CO)C(=O)O)[C@@H](C)O)C(C)C)[C@@H](C)CC)C(C)C)[C@@H](C)CC [LL-37] | 2 | 2 | 4 | 1 |  |  |  |  |  | 
CC(C)C[C@H](NC(=O)[C@H](CCCNC(=N)N)NC(=O)[C@@H]1CCCN1C(=O)[C@@H]1CCCN1C(=O)[C@H](Cc1ccccc1)NC(=O)[C@H](Cc1ccccc1)NC(=O)[C@@H]1CCCN1C(=O)[C@@H]1CCCN1C(=O)[C@@H]1CCCN1C(=O)[C@H](CCCNC(=N)N)NC(=O)[C@@H]1CCCN1C(=O)[C@H](CCCNC(=N)N)NC(=O)[C@@H]1CCCN1C(=O)[C@H](CC(C)C)NC(=O)[C@H](Cc1ccc(O)cc1)NC(=O)[C@@H]1CCCN1C(=O)[C@@H]1CCCN1C(=O)[C@H](CCCNC(=N)N)NC(=O)[C@@H]1CCCN1C(=O)[C@H](CCCNC(=N)N)NC(=O)[C@H](CCCNC(=N)N)NC(=O)[C@@H](N)CCCNC(=N)N)C(=O)O [PR-39_1-22] (H-RRRPRPPYLPRPRPPPFFPPRL-OH) | >32 | >32 | 2 | 16 |  |  |  |  |  | 
CC(C)C[C@H](NC(=O)[C@H](CCCNC(=N)N)NC(=O)CNC(=O)CNC(=O)[C@@H](N)CCCNC(=N)N)C(=O)N[C@H]1CSSC[C@@H](C(=O)N[C@H](C(=O)NCC(=O)N[C@@H](CCCNC(=N)N)C(=O)O)C(C)C)NC(=O)[C@H](C(C)C)NC(=O)[C@@H]2CSSC[C@H](NC(=O)[C@H](Cc3ccc(O)cc3)NC1=O)C(=O)N[C@@H](CCCNC(=N)N)C(=O)N[C@@H](CCCNC(=N)N)C(=O)N[C@@H](CCCNC(=N)N)C(=O)N[C@@H](Cc1ccccc1)C(=O)N2 [Protegrin-1] (H-RGGRLCYCRRRFCVCVGR-OH; disulfide 6-15, 8-13; N-terminus and C-terminus assumed) | 0.25 | 0.25 | 0.25 | 0.25 |  |  |  |  |  | 
CO[C@H]1/C=C/O[C@@]2(C)Oc3c(C)c(O)c4c(O)c(c(/C=N/N5CCN(C)CC5)c(O)c4c3C2=O)NC(=O)/C(C)=C\C=C\[C@H](C)[C@H](O)[C@@H](C)[C@@H](O)[C@@H](C)[C@H](OC(C)=O)[C@@H]1C [Rifampicin] |  |  |  |  | 64 (≈ 52.7 µg/mL) | 64 (≈ 52.7 µg/mL) | 128 (≈ 105 µg/mL) | 64 (≈ 52.7 µg/mL) |  | 
CC[C@H]1OC(=O)[C@H](C)[C@@H](O[C@H]2C[C@@](C)(OC)[C@@H](O)[C@H](C)O2)[C@H](C)[C@@H](O[C@@H]2O[C@H](C)C[C@H](N(C)C)[C@H]2O)[C@](C)(O)C[C@@H](C)/C(=N\OCOCCOC)[C@H](C)[C@@H](O)[C@]1(C)O [Roxithromycin] |  |  |  |  | > 256 | 256 (≈ 214 µg/mL) | 256 (≈ 214 µg/mL) | 256 (≈ 214 µg/mL) |  | 
CN[C@@H]1[C@H](O)[C@H](NC)[C@H]2O[C@@]3(O)C(=O)C[C@@H](C)O[C@H]3O[C@@H]2[C@H]1O [Spectinomycin] |  |  |  |  | 64 (≈ 21.3 µg/mL) | 32 (≈ 10.6 µg/mL) | 32 (≈ 10.6 µg/mL) | 32 (≈ 10.6 µg/mL) |  | 
CC(C)C[C@H](NC(=O)[C@H](CCCNC(=N)N)NC(=O)[C@@H](N)CCCNC(=N)N)C(=O)N[C@@H](CCCNC(=N)N)C(=O)N1CCC[C@H]1C(=O)N[C@@H](CCCNC(=N)N)C(=O)N[C@@H](CCCNC(=N)N)C(=O)N1CCC[C@H]1C(=O)N[C@@H](CCCNC(=N)N)C(=O)N[C@@H](CC(C)C)C(=O)N1CCC[C@H]1C(=O)N[C@@H](CCCNC(=N)N)C(=O)N1CCC[C@H]1C(=O)N[C@@H](CCCNC(=N)N)C(=O)N1CCC[C@H]1C(=O)N[C@@H](CCCNC(=N)N)C(=O)N1CCC[C@H]1C(=O)N[C@@H](CCCNC(=N)N)C(=O)N1CCC[C@H]1C(=O)N[C@@H](CCCNC(=N)N)C(=O)N1CCC[C@H]1C(=O)N[C@@H](CCCNC(=N)N)C(=O)O [mini-ChBac7.5Nα] (H-RRLRPRRPRLPRPRPRPRPRPR-OH) | >32 | >32 | 8 | >32 |  |  |  |  |  | 
colistin |  |  |  |  |  |  |  |  | up to 3 µg/mL and ≤ 4 µM | ≥ 1000
